Experimental data reported in patent US4855497A, “Novel diamine derivatives” (Chugai Seiyaku Kabushiki Kaisha, priority 1985, dated 1989).

Tests used:
[1] = tested on: Ouabain-Induced Arrythmia; assay: Activity against ouabain-induced arrythmia in guinea pigs; format: in vivo, Hartly male guinea pigs; conditions: ouabain 5 μg/kg/min; for Time required for ventricular extrasystole to occur: untreated 28.5 min; for Time required for ventricular fibrillation to occur: untreated 35.1 min; for Time required for cardiac arrest to occur: untreated 41.2 min
Experimental: Activity Against Ouabain-Induced Arrythmia in Guinea Pigs
Hartly male guinea pigs (5-6 wk. old, two animals per group) weighing about 350 g on average were anesthetized by intraperitoneal administration of 1.2 g/kg of urethane. A polyethylene cannula was inserted into both the cervical vein and the carotid artery; the drug was administered through the cervical vein while the blood pressure was measured at the carotid artery. A selected test compound was administered 5 minutes before the sustained intravenous infusion of the ouabain solution (5 μg/kg/min) as described in J. Pharmacol. Exp. Ther., 136, 227, 1962). Identification of arrythmia was made by the ECG in the second induction period; the appearance of a QRS complex with sharply downward deflictions was used as an indication of ventricular arrythmia and observation was continued until ventricular fibrillation and cardiac arrest appeared. The results are shown in Table 4 in terms of the times required for ventricular extrasystole, ventricular fibrillation and cardiac arrest to occur.

Acetylcholine = assay: Activity against acetylcholine (I): inhibition of acetylcholine-induced contraction of isolated ilea; design: species or system SD/Slc male rats; conditions: 10^-4 M; 10^-6 M acetylcholine; isolated rat ilea
Experimental: Activity Against Acetylcholine (I)
SD/Slc male rats (10-mo. old, four animals per group) were clubbed dead and their ilea were immediately extracted. The ilea were suspended under a load of 1 g in a Krebs-Henseleit solution oxygenated with a mixture of 95% O2 +5% CO2 at 27° C., and the ileal reaction was measured isotonically.
The anti-cholinergic activity of each of the compounds tested was determined in terms of percent inhibition against the contractive reaction of 10^-6 M of acetylcholine (causing 60-70% of the maximum contractive reaction of acetylcholine).

[2] = tested on: Aconitine-Induced Arrythmia; assay: Activity against aconitine-induced arrythmia in rats; format: in vivo, Sprague-Dowley male rats; conditions: aconitine 1 μg/kg/min; for Time required for ventricular extrasystole to occur: untreated 14.3 min; for Time required for ventricular fibrillation to occur: untreated 35.3 min
Experimental: Activity Against Aconitine-Induced Arrythmia in Rats
Using Sprague-Dowley male rats (9-10 wk. old, two animals per group) weighing about 350 g on average, the following experiment was conducted substantially in compliance with the method of Vargftig et al. (Europ. J. Pharmacol., 6, 49, 1969).
The animals were anesthetized by intraperitoneal administration of 1 g/kg of urethane. A polyethylene cannula was inserted into both the femoral artery and vein of each animal; the drug was administered through the femoral vein while the blood pressure was measured at the femoral artery.
While the aconitine solution was continuously infused into the vein at a rate of 1 μg/kg/min, a selected compound was administered intravenously at 5-minute intervals. In order to prevent the aconitine-induced dyspnea from interfering with the experimental results, 0.2 mg/kg of d-tubocurarine was administered intravenously to each animal, which then was subjected to artificial respiration through a cannula inserted into the trachea (80 breathings/min, with 4 ml of air supplied by a single ventillation).
Identification of arrythmia was made by the ECG in the second induction period; the appearance of a QRS complex with sharply downward deflections was used as an indication of ventricular arrythmia and observation was continued until ventricular fibrillation appeared. The results are shown in Table 3 in terms of the times required for ventricular extrasystole and ventricular fibrillation to occur.

[3] = tested on: Chloroform-Induced Arrythmia; assay: Activity against chloroform-induced arrythmia in rats (prevention of ventricular fibrillation); format: in vivo, Sprague-Dowley male rats; conditions: Rattus norvegicus, po, 0.5 h; not starved rats; 1 mg/kg P.O.; 30 min prior to chloroform; read-out: Percent prevention (ventricular fibrillation), not starved
Experimental: Activity Aganist Chloroform-Induced Arrythmia in Rats
The following procedures were substantially in accordance with the method of Erker and Baker (Arch. Int. Pharmacodyn., 243, 97-102, 1980). Aminophylline (20 mg/kg) was injected intramuscularly into two groups of Sprague-Dowley male rats (3-4 wk. old, 7 animals per group) weighing about 100 g on average, one group having been starved for 24 hours and the other group not starved. Thirty minutes after the injection, the animals were put into a 4,000-ml glass beaker with a lid that contained gauze impregnated with […] of chloroform. Fifty minutes later, the animals were recovered from the beaker and their chests were incised to check their hearts for the presence of ventricular fibrillation. The features of their cardiac rhythm were examined by the electrocardiogram. When no distinct fibrillation was observed, the heart was touched with tweezers. The heart was identified as fibrillar when rapid irregular twitchings occured on the surface of ventricles and continued for at least 5 seconds after chest incision or mechanical stimulation.
Selected compounds suspended in 3% gum arabic were administered in various doses to the rats either intraperitoneally (i.P.) or perorally (P.O.) 30 minutes prior to treatment with chloroform. The percent prevention of ventricular fibrillation was determined for each rat. Only a 3% gum arabic solution was administered to the control group.

Blood Sugar Level = assay: Effect on blood sugar level; format: in vivo, SD/Slc male rats; conditions: starved overnight
Experimental: Effect on Blood Sugar Level
After starving SD/Slc male rats (body weight, 250 g; 6 animals per group) overnight, 20-μl blood samples were drawn from the tail vein of each rat while it was not anesthetized. Records were taken of the sugar level in each blood sample. A selected compound of the present invention was suspended in 3% gum arabic and the suspension was administered perorally to each rat in an amount of 50 or 200 mg/kg. At 2, 4 and 6 hours of the administration, blood samples were taken and their blood sugar levels were measured. Measurements of blood sugar levels were conducted with a New Blood Sugar Test (Boehringer, Mannheim).
To the control group, a 3% gum arabic solution was administered, and diisopyramide was administered as a comparative drug.

SMILES | Time required for ventricular extrasystole to occur ([1]; 10 mg/kg via cervical vein) [min] | Time required for ventricular fibrillation to occur ([1]; 10 mg/kg via cervical vein) [min] | Time required for cardiac arrest to occur ([1]; 10 mg/kg via cervical vein) [min] | Percent inhibition (contractive reaction of acetylcholine) (Acetylcholine) [%] | Time required for ventricular extrasystole to occur ([2]; 5 mg/kg intravenously) [min] | Time required for ventricular fibrillation to occur ([2]; 5 mg/kg intravenously) [min] | responders at 1 mg/kg [3] [%] | Time required for ventricular extrasystole to occur ([1]; 5 mg/kg via cervical vein) [min] | Time required for ventricular fibrillation to occur ([1]; 5 mg/kg via cervical vein) [min] | Time required for cardiac arrest to occur ([1]; 5 mg/kg via cervical vein) [min] | Blood sugar level, 0 hr (mean ± S.E.) (Blood Sugar Level; 50 mg/kg perorally) [mg/dL] | Blood sugar level, 2 hr (mean ± S.E.) (Blood Sugar Level; 50 mg/kg perorally) [mg/dL] | Blood sugar level, 4 hr (mean ± S.E.) (Blood Sugar Level; 50 mg/kg perorally) [mg/dL] | Blood sugar level, 6 hr (mean ± S.E.) (Blood Sugar Level; 50 mg/kg perorally) [mg/dL] | Blood sugar level, 0 hr (mean ± S.E.) (Blood Sugar Level; 200 mg/kg perorally) [mg/dL] | Blood sugar level, 2 hr (mean ± S.E.) (Blood Sugar Level; 200 mg/kg perorally) [mg/dL] | Blood sugar level, 4 hr (mean ± S.E.) (Blood Sugar Level; 200 mg/kg perorally) [mg/dL] | Blood sugar level, 6 hr (mean ± S.E.) (Blood Sugar Level; 200 mg/kg perorally) [mg/dL] | Time required for ventricular extrasystole to occur ([2]; 10 mg/kg intravenously) [min] | Time required for ventricular fibrillation to occur ([2]; 10 mg/kg intravenously) [min]
CCN(CC)CCCNCCC(=O)Nc1c(C)cccc1C [Compound No. 3, 3-(diethylaminopropylamino)-2',6'-dimethylpropionanilide] | 34.4 | 42.2 | 48.4 | 28 | 27.4 | > 120.0 | 100 | – | – | – | – | – | – | – | – | – | – | – | – | –
CCc1cccc(CC)c1NC(=O)CCNCCCN(CC(C)C)CC(C)C [compound 31] | – | – | – | – | 26.1 | > 90.0 | 100 | 34.1 | 51.0 | 57.8 | – | – | – | – | – | – | – | – | – | –
Cc1cccc(C)c1NC(=O)CCNCCCN(CC(C)C)CC(C)C [compound 12] | 45.4 | 48.2 | 56.6 | – | 26.2 | 30.2 | 85.7 | – | – | – | – | – | – | – | – | – | – | – | – | –
Cc1cccc(C)c1NC(=O)CCNCCCN(C(C)C)C(C)C [compound 11] | 35.3 | 45.3 | 52.4 | 0 | 26.2 | 73.8 | 85.7 | – | – | – | 71.3 ± 2.9 | 61.8 ± 3.1 | 64.0 ± 2.2 | 63.8 ± 1.5 | 62.3 ± 2.7 | 52.0 ± 3.5 | 53.8 ± 3.8 | 63.6 ± 1.5 | 44.2 | > 120.0
Cc1cccc(C)c1NC(=O)CCNCCCN(C)C [Compound No. 2, 3-(dimethylaminopropylamino)-2',6'-dimethylpropionanilide] | 38.1 | 43.4 | 48.7 | 7 | 25.5 | 36.5 | 71.4 | 31.0 | 38.5 | 39.5 | 77.6 ± 5.5 | 61.3 ± 2.2 | 63.7 ± 4.5 | 64.4 ± 4.4 | 76.1 ± 2.4 | 52.9 ± 3.2 | 58.3 ± 2.6 | 56.8 ± 1.7 | – | –
Cc1cccc(C)c1NC(=O)CCNCCNC(C)C [Compound No. 4, 3-(isopropylaminoethylamino)-2', 6'-dimethylpropionanilide] | 42.5 | 59.5 | 66.5 | 0 | – | – | 100 | – | – | – | 81.2 ± 2.4 | 60.3 ± 3.4 | 57.5 ± 1.6 | 61.5 ± 0.6 | 69.1 ± 2.9 | 57.4 ± 3.0 | 58.5 ± 2.1 | 59.0 ± 1.8 | 34.4 | > 120.0
CCc1cccc(CC)c1NC(=O)CCNCCCCCN(CC(C)C)CC(C)C [compound 35] | – | – | – | 9 | 24.5 | 84.5 | 100 | 45.4 | 48.4 | 56.2 | – | – | – | – | – | – | – | – | – | –
Cc1cccc(C)c1NC(=O)CCCNCCCN(CC(C)C)CC(C)C [compound 18] | – | – | – | 0 | – | – | – | – | – | – | – | – | – | – | – | – | – | – | – | –
Cc1cccc(C)c1NC(=O)CCNCCCNC1CCCCCCC1 [compound 14] | – | – | – | – | – | – | 85.7 | – | – | – | – | – | – | – | – | – | – | – | – | –
